Laboratory results from patent US20060281786A1, “Compounds having activity at 5ht2c receptor and uses thereof” (priority 2003, published 2006).

## COc1cc2c3c(n(C)c2cc1Br)CN(c1ccc(OC)c(OCCN2CCCCC2)c1)C3=O.Cl
  melting point: 227 to 229 °C
